Measured values: patent US20230330134A1, “METHOD OF PROPHYLAXIS OF CORONAVIRUS AND/OR RESPIRATORY SYNCYTIAL VIRUS INFECTION” (Starpharma Pty Ltd., priority 2020, published 2023)
Where a name gives a salt, the structure may show the parent alone. Read-outs that look alike come from different tables or passages of the source.

Assays:
[1] = test system: SARS-CoV-2 (hCoV-19/Australia/VIC01/2020); type: cell-based
[2] = test system: SARS-CoV-2 hCoV-19/Australia/VIC01/2020; assay: microbe, parasite or virus in culture; type: cell-based; details: Severe acute respiratory syndrome coronavirus 2, 96 h; positive control; Vero cells; […]; CPE by MTT after 4 days; read-out: EC50
[3] = test system: SARS-CoV-2 (2019-nCoV/USA-WA1/2020); assay: microbe, parasite or virus in culture; type: cell-based; details: for EC50: read-out: EC50
BetaCoV/Wuhan/WIV04/2019 = details: against BetaCoV/Wuhan/WIV04/2019; cited from earlier work
SARS = details: cited from earlier work
[4] = test system: SARS-CoV-2 2019-nCoV/USA-WAl/2020; assay: Antiviral activity in primary human bronchial epithelial cells (HBEpC); type: cell-based; details: highest concentration tested (600 µg/mL), added 1 hour prior to infection, day 4

CCN(CCO)CCCC(C)Nc1ccnc2cc(Cl)ccc12 (centres unmarked) [Hydroxychloroquine sulfate]
effect on virus replication ([1]; 15 µM, any time point): no discernible effect

CCC(CC)COC(=O)[C@H](C)N[P@](=O)(OC[C@H]1O[C@@](C#N)(c2ccc3c(N)ncnn23)[C@H](O)[C@@H]1O)Oc1ccccc1 [Remdesivir, reference compound]
inhibition of virus replication [1]: < 1 log10 TCID50 | EC50 [2]: 5.05 µM | EC50 ([3]; Severe acute respiratory syndrome coronavirus 2, Calu-3): 0.589 µM | EC50 ([3]; Severe acute respiratory syndrome coronavirus 2, Vero C1008): 0.791 µM | activity in the plaque assay ([3]; positive control): active

CCN(CC)CCCC(C)Nc1ccnc2cc(Cl)ccc12 (centres unmarked) [chloroquine]
EC50 (BetaCoV/Wuhan/WIV04/2019): 1.13 µM | IC50 (SARS; against SARS): 8 µM | CC50 (SARS): 261 µM

iota-carrageenan [reference compound]
reduction of infection by nucleocapsid ELISA [4]: 17% | reduction of infection in the plaque assay [4]: 21%
